Laboratory results taken from patent publication US10807970B2 (priority 2016, dated 2020).

The compounds below were run against human σ1 receptor (Homo sapiens, UniProt Q99720) (assay: Human σ1 receptor radioligand assay ([3H](+)-pentazocine, transfected HEK-293 membranes)). Conditions: one class symbol for both Ki-σ1 (human σ1 receptor, A1) and Ki-μ (human μ-opioid receptor, A2).
Type: binding
Design: μ and σ1 dual binding: key to the marks not given beside the values
Outline: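 Membranes from HEK-293 cells transfected with human σ1 receptor (7 μg) incubated with 5 nM [3H](+)-pentazocine in 50 mM Tris-HCl pH 8, 120 min at 37° C. Non-specific binding defined with 10 μM haloperidol. Bound radioligand separated by filtration, washed with ice-cold 10 mM Tris-HCl pH 7.4, and counted by scintillation.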

Chain of human σ1 receptor (Q99720 whole entry): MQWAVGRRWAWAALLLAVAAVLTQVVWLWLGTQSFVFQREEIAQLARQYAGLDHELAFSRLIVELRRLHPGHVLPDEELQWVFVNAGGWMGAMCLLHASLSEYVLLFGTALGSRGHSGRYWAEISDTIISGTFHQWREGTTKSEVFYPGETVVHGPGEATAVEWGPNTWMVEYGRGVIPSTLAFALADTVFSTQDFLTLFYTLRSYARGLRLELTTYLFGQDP

Row | Structure (SMILES) | μ and σ1 dual binding
1 | CC(C)OCCN1CCC([C@@]2(C(=O)c3ccccn3)CCOC(C)(C)C2)CC1 [Example 245, (R)-(4-(1-(2-isopropoxyethyl)piperidin-4-yl)-2,2-dimethyltetrahydro-2H-pyran-4-yl)(pyridin-2-yl)methanone] | ++
2 | CC(C)CCN1CCN([C@@]2(C(=O)c3ccccn3)CCO[C@@H](C)C2)CC1 [Example 168] | ++
3 | CCC1(C2CCN(CCc3ccccc3)CC2)CCOC(C)(C)C1 (stereo not drawn) [Example 173, 4-(4-ethyl-2,2-dimethyltetrahydro-2H-pyran-4-yl)-1-phenethylpiperidine] | ++
4 | CC(C)OCCN1CCN(C2(C)CCOCC2)CC1 [Example 184, 1-(2-isopropoxyethyl)-4-(4-methyltetrahydro-2H-pyran-4-yl)piperazine] | ++
5 | CC(C)OCCN1CCN([C@@]2(C(=O)c3ccccn3)CCO[C@H](C)C2)CC1 [Example 95] | ++
6 | CC1(C)CC(C)(N2CCN(Cc3ccccc3)CC2)CCO1 (stereo not drawn) [Example 36, 1-benzyl-4-(2,2,4-trimethyltetrahydro-2H-pyran-4-yl)piperazine] | ++
7 | CCC1(N2CCN(CCOC(C)C)CC2)CCOCC1 [Example 176, 1-(4-ethyltetrahydro-2H-pyran-4-yl)-4-(2-isopropoxyethyl)piperazine] | ++
8 | CC1(C)CC(C(=O)c2cccnc2)(N2CCN(Cc3ccccc3)CC2)CCO1 (stereo not drawn) [Example 10, (4-(4-benzylpiperazin-1-yl)-2,2-dimethyltetrahydro-2H-pyran-4-yl)(pyridin-3-yl)methanone] | ++
9 | CC1(C)CC(C(=O)c2ccccc2)(N2CCN(Cc3ccccc3)CC2)CCO1 (stereo not drawn) [Example 9, (4-(4-benzylpiperazin-1-yl)-2,2-dimethyltetrahydro-2H-pyran-4-yl)(phenyl)methanone] | ++
10 | CCC1(N2CCN(CCOC(C)C)CC2)CCOC(C)(C)C1 (stereo not drawn) [Example 39, 1-(4-ethyl-2,2-dimethyltetrahydro-2H-pyran-4-yl)-4-(2-isopropoxyethyl)piperazine] | ++
11 | CCC1(N2CCN(CCc3ccncc3)CC2)CCOC(C)(C)C1 (stereo not drawn) [Example 82, 1-(4-ethyl-2,2-dimethyltetrahydro-2H-pyran-4-yl)-4-(2-(pyridin-4-yl)ethyl)piperazine] | ++
12 | CC(C)CCN1CCN([C@@]2(C(=O)c3ccccn3)CCO[C@H](C)C2)CC1 [Example 97] | ++
13 | C[C@H]1C[C@@](C(=O)c2ccccn2)(C2CCN(Cc3ccccc3)CC2)CCO1 [Example 152] | ++
14 | CC(C)CCN1CCN([C@]2(C)CCO[C@@H](C)C2)CC1 [Example 162, 1-((2S,4R)-2,4-dimethyltetrahydro-2H-pyran-4-yl)-4-isopentylpiperazine] | ++

Same assay, conditions: one class symbol for both Ki-σ1 (human σ1 receptor, A1) and Ki-μ (human μ-opioid receptor, A2); read-out: μ and σ1 dual binding

Row | Ki [nM] | Structure (SMILES)
15 | > 500 | O=C(c1ccccn1)C1(N2CCN(Cc3ccc(OC(F)(F)F)cc3)CC2)CCOCC1 [Example 194, pyridin-2-yl(4-(4-(4-(trifluoromethoxy)benzyl)piperazin-1-yl)tetrahydro-2H-pyran-4-yl)methanone]
16 | > 500 | CC1(C)CC(C(=O)c2ccccn2)(N2CCN(Cc3cccnc3)CC2)CCO1 (stereo not drawn) [Example 58, (2,2-dimethyl-4-(4-(pyridin-3-ylmethyl)piperazin-1-yl)tetrahydro-2H-pyran-4-yl)(pyridin-2-yl)methanone]
17 | > 500 | CC1(C)CC(C(=O)c2ccccn2)(N2CCN(CCC(F)(F)F)CC2)CCO1 (stereo not drawn) [Example 127, (2,2-dimethyl-4-(4-(3,3,3-trifluoropropyl)piperazin-1-yl)tetrahydro-2H-pyran-4-yl)(pyridin-2-yl)methanone]
18 | > 500 | N#Cc1ccc(CN2CCN(C3(C4CC4)CCOCC3)CC2)cc1 [Example 191, 4-((4-(4-cyclopropyltetrahydro-2H-pyran-4-yl)piperazin-1-yl)methyl)benzonitrile]

Row | Structure (SMILES) | Ki [nM]
19 | CC(C)CCN1CCN([C@]2(C(=O)c3ccccn3)CCO[C@@H](C)C2)CC1 [Example 169] | < 500
20 | C[C@@H]1C[C@](C(=O)c2ccccn2)(N2CCN(Cc3ccccc3)CC2)CCO1 [Example 154, ((2R,4R)-4-(4-benzylpiperazin-1-yl)-2-methyltetrahydro-2H-pyran-4-yl)(pyridin-2-yl)methanone] | < 500
21 | C[C@H]1C[C@](C(=O)c2ccccn2)(N2CCN(Cc3ccccc3)CC2)CCO1 [Example 27] | < 500

Same assay, conditions: μ and σ1 dual binding, one class symbol for both Ki-σ1 (human σ1 receptor, A1) and Ki-μ (human μ-opioid receptor, A2)

Row | Structure (SMILES) | Ki [nM]
22 | CC(C)CCN1CCN([C@]2(C(=O)c3ccccn3)CCOC(C)(C)C2)CC1 [Example 133, (R)-(4-(4-isopentylpiperazin-1-yl)-2,2-dimethyltetrahydro-2H-pyran-4-yl)(pyridin-2-yl)methanone] | < 100
23 | CC(C)C1(N2CCN(CCc3cccc(F)c3)CC2)CCOC(C)(C)C1 (stereo not drawn) [Example 91, 1-(3-fluorophenethyl)-4-(4-isopropyl-2,2-dimethyltetrahydro-2H-pyran-4-yl)piperazine] | < 500
24 | C[C@H]1C[C@@](C(=O)c2ccccn2)(N2CCN(CCc3ccccc3F)CC2)CCO1 [Example 170] | < 500
25 | CC(C)CCN(C)[C@H]1CCN([C@@]2(C(=O)c3ccccn3)CCOC(C)(C)C2)C1 [Example 151, ((S)-4-((S)-3-(isopentyl(methyl)amino)pyrrolidin-1-yl)-2,2-dimethyltetrahydro-2H-pyran-4-yl)(pyridin-2-yl)methanone] | < 500
26 | CC(C)(F)CCN1CCN(C2(C(=O)c3ccccn3)CCOC(C)(C)C2)CC1 (stereo not drawn) [Example 117, (4-(4-(3-fluoro-3-methylbutyl)piperazin-1-yl)-2,2-dimethyltetrahydro-2H-pyran-4-yl)(pyridin-2-yl)methanone] | < 500
27 | c1ccc(CC2(N3CCN(Cc4cccnc4)CC3)CCOC3(CCCC3)C2)cc1 (stereo not drawn) [Example 122, 1-(9-benzyl-6-oxaspiro[4.5]decan-9-yl)-4-(pyridin-3-ylmethyl)piperazine] | < 500
28 | CC(C)CCN1CCC([C@]2(C(=O)c3ccccn3)CCOC(C)(C)C2)CC1 [Example 114, (S)-(4-(1-isopentylpiperidin-4-yl)-2,2-dimethyltetrahydro-2H-pyran-4-yl)(pyridin-2-yl)methanone] | < 500
29 | CC(C)COCCN1CCN([C@]2(C(=O)c3ccccn3)CCOC(C)(C)C2)CC1 [Example 137, (R)-(4-(4-(2-isobutoxyethyl)piperazin-1-yl)-2,2-dimethyltetrahydro-2H-pyran-4-yl)(pyridin-2-yl)methanone] | < 500
30 | CC(C)C1(N2CCN(CCc3ccccc3)CC2)CCOC(C)(C)C1 (stereo not drawn) [Example 42, 1-(4-isopropyl-2,2-dimethyltetrahydro-2H-pyran-4-yl)-4-phenethylpiperazine] | < 100
31 | c1ccc(CN2CCN(C3(Cc4ccccc4)CCOC4(CCCC4)C3)CC2)cc1 (stereo not drawn) [Example 34, 1-benzyl-4-(9-benzyl-6-oxaspiro[4.5]decan-9-yl)piperazine] | < 500
32 | CC(C)CCN1CCC(C2(C(=O)c3ccccn3)CCOC(C)(C)C2)CC1 (stereo not drawn) [Example 76, (4-(1-isopentylpiperidin-4-yl)-2,2-dimethyltetrahydro-2H-pyran-4-yl)(pyridin-2-yl)methanone] | < 100
33 | CC1(C)CC(C(=O)c2ccccn2)(C2CCN(Cc3cccc(F)c3)CC2)CCO1 (stereo not drawn) [Example 108, (4-(1-(3-fluorobenzyl)piperidin-4-yl)-2,2-dimethyltetrahydro-2H-pyran-4-yl)(pyridin-2-yl)methanone] | < 500
